The values that follow come from patent US8362066B2, “Compounds and methods for treating protein folding disorders” (Treventis Corporation, priority 2006, dated 2013).

Holding throughout (type): biochemical
Assay [1] has as its target T1, Aβ1-40 (Homo sapiens, UniProt P05067).
T1 construct: Both Aβ1-40 and Aβ1-42 were purchased from Anaspec; purchased Anaspec
Put plainly: ThT fluorescence assay, inhibition of Aβ1-40 aggregation. As to the method:
The compounds of the invention were evaluated for activity against Aβ aggregation in a kinetic thioflavin T (ThT) fluorescence assay similar to that of Chalifour, R. J., et al., J. Biol. Chem. (2003) 278: 34874-81. IC50 values for inhibition of Aβ1-40 aggregation in the ThT fluorescence assay for a number compounds of the present invention were determined. Values were calculated by solving the equation y=(m2)/(1+(x/m3)^m4) where y is percent aggregation, x is compound concentration, and m3 is the concentration giving 50% aggregation (i.e. IC50), using KaleidaGraph 4.0 (Synergy Software). Dye-binding ThT/ThS protein aggregation assays for Aβ, tau and α-synuclein were performed as described in Example 8 of US2007/0015813.

Assay [2] concerns the target α-synuclein (Homo sapiens, UniProt P37840). Put plainly: ThT fluorescence assay, α-synuclein aggregation. The following applies: α-synuclein 4 μM, 96 hours, 37° C. As to the method: (§1) The following procedures were used. The compounds were examined by circular dichroism (CD) to confirm their anti-amyloidogenic activity and were further evaluated for inhibition of both tau and α-synuclein aggregation in Thioflavin S (ThS) and ThT dye-binding fluorescence assays, respectively. The compounds were also evaluated in a MTT [3-(4,5-dimethylthiazol-2-yl)-2,5-diphenyltetrazolium bromide] cell viability assay (Kaneko, I., et al., J. Neurochem. (1995) 65: 2585-93). Pharmacokinetic (PK) testing was also performed. Compounds administered to mice (IP or PO dosing) had no toxicity at doses up to 300 mg/kg and were present in brain more than four hours after administration.
(§2) Dye-binding ThT/ThS protein aggregation assays for Aβ, tau and α-synuclein were performed as described in Example 8 of US2007/0015813.

The target in assay [3] is T1, Aβ1-40. Put plainly: Tris-tricine SDS-PAGE, Aβ1-40 self-assembly following ThT aggregation assay. The following applies: FIG. 9. How it is done: (§3) Pre-cast polyacrylamide gels were purchased from NuSep (10-20% Tris-tricine-SDS). These were chosen for their large separation range of 2.5 to 205 kDa. Molecular weight markers were purchased from Sigma Aldrich and diluted twenty fold for individual use. Three buffers were used for this technique: 1) Sample buffer (1.25 mL 0.5 M Tris-HCl (pH 6.8), 2.5 mL glycerol, 2.0 mL 10% SDS, 0.2 mL 0.5% bromophenol blue, 3.55 mL distilled water) which was used as the leading band in the gel. 2) Cathode Buffer (12.11 g tris base, 17.92 g tricine, 1 g SDS, diluted to 1 L with distilled water) which was the inner buffer in the tank assembly. 3) Anode Buffer (5× concentrated: 121.1 g tris base in 1 L of distilled water, pH 8.9 adjusted with concentrated HCl) which was the outer buffer and loaded at 1× concentration. Both Aβ1-40 and Aβ1-42 were purchased from Anaspec.
(§4) Five solutions were required to stain the gels using the silver stain protocol: 1) Fixer 1 (40% methanol, 10% acetic acid, diluted to 1 L with Millie-Q water) 2) Fixer 2 (45 g anhydrous sodium acetate, 300 mL methanol, 5 mL 25% glutaraldehyde, diluted to 1 L with Millie-Q water), 3) a) Silver stain A (15 mL of 25% ammonia solution, 0.8 g sodium hydroxide, diluted to 950 mL with Millie Q water). b) Silver stain B (6 g of silver nitrate in 50 mL Millie Q water). Solution B was then slowly added to solution A. 4) Developer (0.1 g citric acid, 1 mL formaldehyde, diluted to 1 L with Millie-Q water), 5) Stop solution (50 mL acetic acid, diluted to 1 L with Millie-Q water).
(§5) Following a ThT (Aβ1-40) or ThS (Tau 441) aggregation assay, described in Example 8 of US2007/0015813, samples were immediately aspirated and stored in centrifuge tubes. 10 μL of each sample was transferred to a microfuge tube and diluted 1:1 with sample buffer before being incubated (37° C.) for 30 minutes and loaded in the precast gels (15 μL in each well). The gel was then run at 100 V for approximately one hour or until the leading band reached the bottom of the gel.
(§6) Once the gel had finished running, it was removed from its plastic case and placed in a tray for staining. Approximately 200-250 mL volume was used for all the solutions. The gel was first washed with distilled water briefly to rinse off the excess buffer from the tank. It was then immersed in Fixer 1 for 30 minutes. followed by Fixer 2 for 30 minutes. Once the gel was fixed it then underwent three water washes at 10 minutes per wash. After the water washes, the gel was stained for 30 minutes using the silver stain solution. Excess stain was removed using three four-minute water washes. The gel was then immersed in the developer solution to visualize the stain. This took place for approximately 5 minutes or until the desired intensity was reached. To immediately stop the developing process the gel was placed in the stop solution for 10 minutes.

Assay [4] concerns the target T2, Tau 441 (Homo sapiens, UniProt P10636). Put plainly: Tris-tricine SDS-PAGE, Tau 441 self-assembly following ThS aggregation assay. The following applies: FIG. 10. As to the method: as §3, §4, §5, §6
Assay [5] has as its target T2, Tau 441. Put plainly: ThS fluorescence assay, Tau 441 aggregation. The following applies: Tau 441 6 μM; compound 50 μM and 10 μM; 24 hours, 37° C., FIG. 15. As to the method: as §1, §2
Setting [6] is: compound 50 μM and 10 μM, FIG. 17.
[7] abbreviates: compound 100 μM and 20 μM, FIG. 16.

As usually defined, the IC50 is the point on the concentration scale where inhibition reaches its midpoint.

SMILES strings stand for the structures. A value given as a limit tells only on which side of the number the result lay.

T2 sequence (P10636 1-441 isoform P10636-8): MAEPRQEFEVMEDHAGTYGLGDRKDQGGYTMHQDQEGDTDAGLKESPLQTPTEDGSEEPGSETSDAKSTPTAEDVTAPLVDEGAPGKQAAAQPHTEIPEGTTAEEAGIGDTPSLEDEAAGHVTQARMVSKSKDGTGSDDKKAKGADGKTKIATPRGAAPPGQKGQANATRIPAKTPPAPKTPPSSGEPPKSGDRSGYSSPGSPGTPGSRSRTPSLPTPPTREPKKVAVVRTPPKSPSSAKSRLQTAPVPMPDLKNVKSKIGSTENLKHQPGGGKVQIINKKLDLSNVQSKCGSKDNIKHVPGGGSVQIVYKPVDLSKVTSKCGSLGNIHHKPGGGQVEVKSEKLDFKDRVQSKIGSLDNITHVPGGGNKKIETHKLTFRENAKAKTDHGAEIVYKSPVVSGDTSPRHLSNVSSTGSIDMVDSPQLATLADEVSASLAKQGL
T1 sequence (P05067 672-711 limits assumed): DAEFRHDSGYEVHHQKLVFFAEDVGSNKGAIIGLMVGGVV

Regarding `COc1ccc2cc(-c3c[nH]c4ccc(C(=O)O)cc34)ccc2c1` [QR-0216], the IC50 in assay [1] is 35.5 µM.
The same measure, in the same setting: the value for `O=C(O)c1cccc2c(-c3cc4ccccc4o3)cn(Cc3ccccc3)c12` [QR-0284, 3-Benzofuran-2-yl-1-benzyl-1H-indole-7-carboxylic acid] was greater than 50 µM.
Regarding `O=C(O)c1ccc2c(c1)c(-c1ccc3cc(O)ccc3c1)cn2Cc1ccccc1` [QR-0162, 1-Benzyl-3-(6-hydroxynaphthalen-2-yl)-indole-5-carboxylic acid], in assay [1], the IC50 worked out at 17.5 µM. Also, in assay [2] (setting [6]), the “inhibition of α-synuclein aggregation (ThT fluorescence)” value (“inhibition of α-synuclein aggregation” for short) is given as “showed inhibition”.
In the case of `Oc1ccc(C=Cc2cc(O)cc(O)c2)cc1` [resveratrol, reference compound], the “inhibition of α-synuclein aggregation” value in assay [2] (setting [7]) is “showed inhibition”.
Turning to `Oc1ccc2cc(-c3ccc4c(c3)OCCO4)ccc2c1` [QR-0229, 6-(2,3-Dihydrobenzo[b][1,4]dioxin-7-yl)naphthalene-2-ol], the IC50 in assay [1] is 18.9 µM.
The same measure, in the same setting: the value for `N#Cc1ccc2[nH]cc(-c3c(O)c(O)cc4ccccc34)c2c1` [QR-0321] was 9.4 µM.
With `O=C(O)c1ccc2[nH]cc(-c3c[nH]c4cccc(O)c34)c2c1` [QR-0176], the IC50 in assay [1] worked out at 1.99 µM. Besides, the “inhibition of α-synuclein aggregation” value in assay [2] (setting [7]) is “showed inhibition”.
Consider `Oc1cc2ccccc2c(-c2cc3ccccc3o2)c1O` [QR-0164, 2-(2,3-Dihydroxynaphthalen-1-yl)-benzofuran], for which the half-maximal inhibitory concentration (IC50) in assay [1] is 3 µM. Moreover, the “inhibition of α-synuclein aggregation” value in assay [2] (setting [6]) is “showed inhibition”.
As to `O=C(O)c1cccc2c(-c3ccc4cc(O)ccc4c3)c[nH]c12` [QR-0258, 3-(2-Hydroxynaphthalen-6-yl)-1H-indole-7-carboxylic acid], in assay [1], the IC50 was 10 µM.
As for `O=C(O)c1cccc2c(-c3cc4ccccc4o3)c[nH]c12` [QR-0256], the IC50 in assay [1] was 17.1 µM.
As for `COc1c(C(=O)O)cc2cc(-c3ccc4c(c3)OCCO4)ccc2c1Br` [QR-0282, 4-Bromo-7-(2,3-dihydrobenzo[b][1,4]dioxin-7-yl)-3-methoxynaphthalene-2-carboxylic acid], in assay [3], the “Aβ1-40 dimer band (SDS-PAGE)” value was “appearance of a dimer band” and the “effect on distribution of Aβ1-40 among states of assembly / monomer (SDS-PAGE)” value (“effect … of assembly / monomer (SDS-PAGE)” below) is given as “increase in the concentration of Aβ1-40 monomer”.
Consider `N#Cc1ccc2[nH]cc(-c3ccc4cc(O)ccc4c3)c2c1` [QR-0313], for which the IC50 in assay [1] is 6.5 µM.
With `COc1ccccc1Nc1cccc(Nc2ccccc2OC)c1` [QR-0316], the IC50 in assay [1] is greater than 50 µM.
`O=C(O)c1ccc2c(-c3c[nH]c4ccc([N+](=O)[O-])cc34)c[nH]c2c1` [QR-0327]: in assay [1], the IC50 amounted to 11.5 µM.
Consider `O=C(O)c1cccc2c(-c3c[nH]c4ccc(Br)cc34)c[nH]c12` [QR-0303], for which, in assay [1], the IC50 was determined as 21 µM.
`Oc1ccc2cc(-c3cc4ccccc4o3)ccc2c1Br` [QR-0297, 6-(Benzofuran-2-yl)-1-bromonaphthalen-2-ol]: the IC50 in assay [1] turned out to be 0.57 µM.
`Oc1ccc2[nH]cc(-c3c(O)c(O)cc4ccccc34)c2c1` [QR-0212, 5-hydroxy-3-(2,3-dihydroxyynathalen-1-yl)-1H-indole]: the IC50 in assay [1] was found to be 8.2 µM. The “inhibition of α-synuclein aggregation” value in assay [2] (setting [7]) is “showed inhibition”.
For `COc1ccc2[nH]cc(-c3c[nH]c4ccc(C#N)cc34)c2c1` [QR-0238], the IC50 in assay [1] is 20.9 µM.
Consider `Oc1ccc2[nH]cc(CN3CCc4ccccc4C3)c2c1` [QR-0269], for which the IC50 in assay [1] is greater than 200 µM.
On to `Oc1cc2ccccc2c(-c2c[nH]c3ccccc23)c1O` [QR-0189], for which the IC50 in assay [1] was found to be 19 µM. The “inhibition of α-synuclein aggregation” value in assay [2] (setting [7]) is reported as “showed inhibition”.
As to `Oc1ccc(Nc2cccc(Nc3ccc(O)cc3)c2)cc1` [QR-0325], the IC50 in assay [1] amounted to 1.03 µM.
In the case of `COc1ccc(Nc2ccc(Nc3ccc(OC)cc3)cc2)cc1` [QR-0292], in assay [1], the IC50 came out at 0.54 µM.
In the case of `O=C(O)c1ccc2[nH]cc(-c3c[nH]c4ccc(O)cc34)c2c1` [QR-0142], the “effect … of assembly / monomer (SDS-PAGE)” value in assay [3] was “increase in the concentration of Aβ1-40 monomer”.
`Nc1ccc2[nH]cc(-c3c4ccccc4cc4c3[nH]c3ccc(N)cc34)c2c1` [QR-0302]: in assay [1], the IC50 came out at 3.2 µM.
Same read-out and setting: the value for `O=C(O)c1cccc2c(-c3cc4ccccc4s3)cn(Cc3ccccc3)c12` [QR-0287, 3-(Benzo[b]thiophen-2-yl)-1-benzyl-1H-indole-7-carboxylic acid] was 19.5 µM.
Regarding `O=C(O)c1cccc2c(-c3cc4ccccc4s3)c[nH]c12` [QR-0261], the IC50 in assay [1] came out at 10.3 µM.
As to `Nc1ccc2[nH]cc(-c3c[nH]c4ccc(Br)cc34)c2c1` [QR-0300], the IC50 in assay [1] came to 1.7 µM.
Regarding `Oc1ccc2cc(-c3c[nH]c4ccc(O)cc34)ccc2c1` [QR-0225, 5-Hydroxy-3-(2-hydroxynaphthalen-6-yl)-1H-indole], the IC50 in assay [1] came to 7 µM.
For `Oc1ccc(Nc2cccc(Nc3ccc(O)cc3)c2)cc1` [QR-0319], the IC50 in assay [1] came to 2.4 µM.
With `Oc1cc2ccccc2c(-c2ccc3c(c2)OCCO3)c1O` [QR-0231, 1-(2,3-Dihydrobenzo[b][1,4]dioxin-7-yl)-2,3-dihydroxynaphthalene], in assay [1], the IC50 turned out to be 27.8 µM.
Take `Oc1cccc(Nc2cccc(Nc3cccc(O)c3)c2)c1` [QR-0326]: the IC50 in assay [1] was 3.3 µM.
Still for that read-out and setting: the value for `COc1cccc(Nc2cccc(Nc3cccc(OC)c3)c2)c1` [QR-0315] was 5.7 µM.
`N#Cc1ccc2[nH]cc(-c3c[nH]c4ccc(O)cc34)c2c1` [QR-0276]: the IC50 in assay [1] is 16.5 µM. Besides, in assay [3], the “effect … of assembly / monomer (SDS-PAGE)” value was “little effect”.
Turning to `O=C(O)c1cc2cc(-c3cc4ccccc4o3)ccc2c(Br)c1O` [QR-0244, 7-(Benzofuran-2-y)-4-bromo-3-hydroxynaphthalene-2-carboxylic acid], the “Tau 441 dimer and trimer bands (SDS-PAGE)” value in assay [4] is “appearance of dimer and trimer bands”. In addition, the “effect on Tau 441 self-assembly, monomer fragmentation (SDS-PAGE)” value in assay [4] (relative to control) was “decreased fragmentation of tau 441 monomer”. Besides, the IC50 in assay [1] was determined as 5.6 µM. In addition, in assay [5], the “inhibition of Tau 441 aggregation (ThS fluorescence)” value is “greatly inhibited”.
As to `O=C(O)c1ccc2c(-c3c[nH]c4ccc(O)cc34)c[nH]c2c1` [QR-0253], in assay [1], the IC50 stood at 11.8 µM.
Still for that read-out and setting: under `N#Cc1ccc2[nH]cc(-c3c[nH]c4ccc(Br)cc34)c2c1` [QR-0240] stands 12 µM; under `COc1ccc2[nH]cc(-c3c[nH]c4ccc([N+](=O)[O-])cc34)c2c1` [QR-0171], 5.8 µM.
